In PubChem BioAssay (NCI):
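How tested: cells in 96-well plates exposed to compound for 48 hours at five concentrations. TGI marks complete inhibition of growth.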

Key:
Experiment in all cases: NCI anticancer screen, dose series, 48 h
KM12 colon = system: KM12 colon
PC-3 prostate = system: PC-3 prostate
HL-60(TB) leukemia = system: HL-60(TB) leukemia
UACC-62 melanoma = system: UACC-62 melanoma
OVCAR-4 ovarian = system: OVCAR-4 ovarian
SF-295 CNS = system: SF-295 CNS
SW-620 colon = system: SW-620 colon
MOLT-4 leukemia = system: MOLT-4 leukemia
IGROV1 ovarian = system: IGROV1 ovarian
HT29 colon = system: HT29 colon
COLO 205 colon = system: COLO 205 colon
TK-10 renal = system: TK-10 renal
RPMI-8226 leukemia = system: RPMI-8226 leukemia
SK-MEL-28 melanoma = system: SK-MEL-28 melanoma
HCT-15 colon = system: HCT-15 colon
NCI-H226 lung = system: NCI-H226 lung
SNB-75 CNS = system: SNB-75 CNS
786-0 renal = system: 786-0 renal
SK-OV-3 ovarian = system: SK-OV-3 ovarian

SMILES	TGI (KM12 colon) [µM]	TGI (PC-3 prostate) [µM]	TGI (HL-60(TB) leukemia) [µM]	TGI (UACC-62 melanoma) [µM]	TGI (OVCAR-4 ovarian) [µM]	TGI (SF-295 CNS) [µM]	TGI (SW-620 colon) [µM]	TGI (MOLT-4 leukemia) [µM]	TGI (IGROV1 ovarian) [µM]	TGI (HT29 colon) [µM]	TGI (COLO 205 colon) [µM]	TGI (TK-10 renal) [µM]	TGI (RPMI-8226 leukemia) [µM]	TGI (SK-MEL-28 melanoma) [µM]	TGI (HCT-15 colon) [µM]	TGI (NCI-H226 lung) [µM]	TGI (SNB-75 CNS) [µM]	TGI (786-0 renal) [µM]	TGI (SK-OV-3 ovarian) [µM]
C/C(=N\NS(=O)(=O)c1ccc(C)cc1)c1ccccn1	> 100	> 100	73.3	> 100	> 100	> 100	> 100	> 100	> 100	> 100	93.5	> 100	> 100	> 100	> 100	> 100	> 100	> 100	> 100
NC(N)=NS(=O)(=O)c1ccc(NNc2c3ccccc3nc3ccccc23)cc1	28.6	25.3	43.9	35.3	21.7	73	33.7	2.85	81.7	27.2	33.2	42.7	44.9	29.2	> 100	20.5	50.3	25.5	40.3
Cc1ccc(C(=O)N/N=C(\N=Nc2cccc([N+](=O)[O-])c2)c2ccc(N(CCC#N)CCC#N)cc2C)cc1	61.6	> 100	> 43	> 100	> 100	> 92	> 100	> 82.6	> 100	> 100	20.9	> 100	> 100	> 86.3	> 100	> 26.2	74.1	> 100	> 85.2
O=C1OC(CCCN2CCCCC2)(c2ccccc2)CC12CCCC2 (stereo not given)	> 100	> 100	> 100	> 100	> 100	> 100	> 100	> 100	> 100	> 92	> 100	> 100	> 100	57	> 100	> 100	> 100	> 100	> 100
O=C(O)c1c2c(cc3c1CC(Cc1ccccc1)C3=O)CCC2 (stereo not given)	> 100	> 100	42.3	> 100	> 100	> 100	> 100	> 100	> 100	> 100	> 100	> 100	> 100	> 100	> 100	> 100	> 100	> 100	> 100
O=[N+]([O-])c1ccc(CSc2nncc3[nH]cnc23)cc1	> 100	> 100	> 100	> 100	> 100	> 100	> 100	> 100	> 100	> 100	> 100	> 100	> 100	> 100	> 100	> 100	> 100	> 100	> 100
C=CCCON(C(=O)OC(C)(C)C)c1ccccc1	> 100	> 100	> 100	> 100		> 100	> 100	> 100	> 100	> 100	> 100	> 100	> 100	> 100	> 100	> 100	> 100	> 100	> 100
C=C(CCOC)CCC1CCCCC(CN(C)C)C1=O (stereo not given)	> 100	> 100	> 100	> 100	> 100	> 100	> 100	> 100	> 100	> 100	> 100		> 100	> 100	> 100	> 100	> 100	> 100	> 100
COc1cc2c(cc1OCCCCCCCCCCN1C(=O)c3cccc4cccc(c34)C1=O)N=C[C@@H]1CCCN1C2=O	50.2	12.3	43.2	24.8	6.11	27.4	19	5.76	18.4	29.3	15.9	> 100	4	33	16.9	5.25	21.3	55.9	19.8
Cc1ccc(C2(O)CSC(=NC34CC5CC(CC(C5)C3)C4)N2C(P(=O)(O)O)P(=O)(O)O)cc1 (stereo not given)	> 100	> 100	> 100		> 100	> 100	> 100	> 100	> 100	> 100	> 100	> 100	> 100	> 100	> 100	> 100	> 100	> 100	> 100
Cc1ccc(C(=O)O)c(/C=C2\Cc3ccc(C)cc3C2=O)c1	> 100	> 100	98.6	> 100	> 100	> 100	> 100	> 100	> 100	> 100	> 100	> 100	53.3	> 100	> 100	85.2	> 100	> 100	
CC1(C)N/C(=C\[N+](=O)[O-])C(C)(C)N1O	> 10	> 10	> 10	> 10	> 10	> 10	> 10	> 10	> 10	> 10	> 10	> 10	> 10	> 10	> 10	> 10	> 10	> 10	> 10
O=C(NC1=C(Cl)C(=O)c2ccccc2C1=O)c1ccccc1	> 100	> 100	> 100	90.7	> 100	> 100	33.4	58.8	> 100	66.1	30	52.5	> 100	> 100	62.6	69	> 100	> 100	
COC(=O)C1Cc2cc3c(cc2C1=O)CCC3 (stereo not given)	> 100	> 100	> 100	> 100	> 100	> 100	> 100	> 100	> 100	> 100	> 100	> 100	> 100	> 100	> 100	> 100	> 100	> 100	> 100
Cc1c(N2C(=O)C(Cl)C2/C=C/c2ccccc2)c(=O)n(-c2ccccc2)n1C (stereo not given)	29.5	> 100	45.3	31.2	84.6	48.1	82.1	50	42.8	56.3	28	37.4	34.7			61.6	87.3	67.1	76.6
Cc1c(-c2ccccc2)cc(O)c2nc3ccccc3n12	> 100	> 100	> 100	> 100	> 100	> 100	> 100	> 100	> 100	> 100	> 100	> 100	> 100	> 100	> 100	> 100	> 100	> 100	
O=C1/C(=C\c2ccc([N+](=O)[O-])cc2)N(S(=O)(=O)c2ccccc2)c2ncccc21	44.3	33.4	5.4	26		75.4	34.2	13.5	36.8	35	56.8	31.9	41	41.8	32.3	83.5	43.1	37.1	19.8
N#Cc1c(-c2ccc(Cl)cc2)c2c(n(C3OC(CO)C(O)C(O)C3O)c1=S)CCCC2 (stereo not given)	> 100	> 100	58.9		> 100	> 100	> 100	87.1	> 100	> 100	> 100	> 100	> 100	> 100	> 100	> 100	> 100	> 100	
CC(C)(C)C1CCC(=O)/C(=C/CC2CC(=O)N(c3ccccc3)C(=O)C2)C1 (stereo not given)	33.6	70.2	94.1	27.7	77.4	> 100	53.5	75.2	44.5	43.6	41.2	31.8	49.1	47.4	33.2	32	53.3	38.3	
CC(=O)OCC1OC(N2C(C)=C(C(C)=O)C(c3ccc(Cl)cc3)C(C#N)=C2S)C(OC(C)=O)C(OC(C)=O)C1OC(C)=O (stereo not given)	> 100	> 100	> 100	60.6	> 100	> 100	> 100	82.2	> 100	> 100	35.6	> 100	> 100	> 100	> 100	> 100	> 100	> 100	
C=CCn1c(N)c(C#N)c(C#N)c1CCC	> 100	> 100	> 100	> 100	> 100	> 100	> 100	> 100	> 100	> 100	> 100	> 100	> 100		> 100	> 100	> 100	> 100	> 100
S=C(N/N=C/c1ccccn1)N1CCCCC1	> 100	> 100	0.264	0.575	> 24.1	> 100	> 100			> 100	> 100	> 100	1.68	> 100	28.3	6.97	0.181	7.08	> 38.8
CN(/N=C/c1ccc(C(=O)O)cc1)C1=NCCCCN1	> 100	> 100	> 100	> 100	> 100	> 100		> 100	> 100	> 100	> 100		> 100	> 100	> 100	> 100	> 100	> 100	> 100
COC(=O)[C@@H]1C[C@H]2OC(=O)CC[C@]2(C)O[C@H]1[C@H]1O[C@@](C)(O)CCC[C@H]1C	> 50	> 50	30.6	> 50	> 50	> 50	> 50	> 50	> 50	> 50	> 50	> 50	> 50	> 50	> 50	> 50		> 50	> 50
CCCCC1(NN=C2CCCCC2)C(=O)N(c2ccccc2)N(c2ccccc2)C1=O	> 100	> 100	38.4	> 100	> 100	> 100	> 100	66	> 100	> 100	> 100	> 100	> 100	> 100	> 100		> 100	> 100	> 100
